Marks after values point to notes of the source that are not given here.
How the values were obtained:
[1] = tested on: rats with hyperuricemia induced by oteracil potassium; assay: serum uric acid content in rats with hyperuricemia induced by oteracil potassium; assay type: in vivo, rat
Text: (§1) As the index in the following examples, the experimental method of therapeutic effects of the peptide samples on the oteracil potassium-induced hyperuricemia in rats was as follow:
(§2) Animals: 140 SPF grade SD male rats, weight 200±20 g, purchased from Laboratory Animal Center of Guangzhou University of Chinese Medicine.
(§3) Animal grouping and modeling: Taking a total of 140 healthy male SD rats, and randomly dividing them into a normal control group (20 rats) and a model group (120 rats); the model group rats were gavage with oteracil potassium (daily dose: 2 g/kg) for 7 days, then the rat were anesthetized via intraperitoneally injecting 3% pentobarbital sodium (30 mg/kg) after the last administration, their blood was taken from conjunctival (0.5 ml), then centrifuging at 4° C. and 3000 r/min for 15 min, and taking the upper serum to determine the uric acid content, and the rats in the normal control group were treated with a constant volume of solvent by intragastric administration. The rats with the uric acid content above 110 μmol/L were identified to be successful in modeling.
The rats successful in modeling, according to the uric acid content, was randomly dividing into a model control group (constant volume solvent), a tested peptide sample group (200 mg/kg) and an allopurinol group (50 mg/kg) at 14 rats per group, and the rats were gavage with oteracil potassium (daily dose: 2 g/kg) at a dose of 10 ml/kg, with the model rats treated with a constant volume of distilled water. Administering 3% pentobarbital sodium (30 mg/kg) for 50 min at the end of administering the above-mentioned peptide samples for 10 days and 20 days, drawing the conjunctival blood (0.5 ml), and determining the serum uric acid content; after the 30th day of treatment with anti-gout peptides, drawing the celiac artery blood 5 ml after anesthesia with 3% pentobarbital sodium, and determining the content of serum creatinine and urea nitrogen in addition to determining the serum uric acid content.
Determination of serum uric acid: using the tungstic acid method and strictly following the determination method from the kit instructions.
Statistical treatment: all data is presented as “mean±standard deviation”, t test was performed to determine the significant difference between samples at the 95% confidence interval using SPSS 19.0 software.

[2] = tested on: rats with hyperuricemia induced by oteracil potassium; assay: serum creatinine and urea nitrogen content in rats with hyperuricemia induced by oteracil potassium; assay type: in vivo, rat; conditions: 30 days, peptide samples 200 mg/kg, allopurinol 50 mg/kg
Text: as §1, §2
as §3, with “modeling. […]” for “modeling.”

[3] = tested on: serum adenosine deaminase (ADA); assay: serum ADA activity in rats with hyperuricemia induced by oteracil potassium; assay type: in vivo, rat; conditions: 30 days, peptide samples 200 mg/kg, allopurinol 50 mg/kg
Text: as §1, §2
as §3, with “modeling. […]” for “modeling.”

[4] = molecular target: T1, serum xanthine oxidase (XOD) (Rattus norvegicus, UniProt P22985); assay: serum XOD activity in rats with hyperuricemia induced by oteracil potassium; assay type: in vivo; conditions: 30 days, peptide samples 200 mg/kg, allopurinol 50 mg/kg
T1 construct: Taking 100 μl of serum for determination of XOD; from tissue; host or cells: serum of SD male rats
Text: as §1, §2
as §3, with “modeling. […]” for “modeling.”

T1 sequence (P22985 whole entry): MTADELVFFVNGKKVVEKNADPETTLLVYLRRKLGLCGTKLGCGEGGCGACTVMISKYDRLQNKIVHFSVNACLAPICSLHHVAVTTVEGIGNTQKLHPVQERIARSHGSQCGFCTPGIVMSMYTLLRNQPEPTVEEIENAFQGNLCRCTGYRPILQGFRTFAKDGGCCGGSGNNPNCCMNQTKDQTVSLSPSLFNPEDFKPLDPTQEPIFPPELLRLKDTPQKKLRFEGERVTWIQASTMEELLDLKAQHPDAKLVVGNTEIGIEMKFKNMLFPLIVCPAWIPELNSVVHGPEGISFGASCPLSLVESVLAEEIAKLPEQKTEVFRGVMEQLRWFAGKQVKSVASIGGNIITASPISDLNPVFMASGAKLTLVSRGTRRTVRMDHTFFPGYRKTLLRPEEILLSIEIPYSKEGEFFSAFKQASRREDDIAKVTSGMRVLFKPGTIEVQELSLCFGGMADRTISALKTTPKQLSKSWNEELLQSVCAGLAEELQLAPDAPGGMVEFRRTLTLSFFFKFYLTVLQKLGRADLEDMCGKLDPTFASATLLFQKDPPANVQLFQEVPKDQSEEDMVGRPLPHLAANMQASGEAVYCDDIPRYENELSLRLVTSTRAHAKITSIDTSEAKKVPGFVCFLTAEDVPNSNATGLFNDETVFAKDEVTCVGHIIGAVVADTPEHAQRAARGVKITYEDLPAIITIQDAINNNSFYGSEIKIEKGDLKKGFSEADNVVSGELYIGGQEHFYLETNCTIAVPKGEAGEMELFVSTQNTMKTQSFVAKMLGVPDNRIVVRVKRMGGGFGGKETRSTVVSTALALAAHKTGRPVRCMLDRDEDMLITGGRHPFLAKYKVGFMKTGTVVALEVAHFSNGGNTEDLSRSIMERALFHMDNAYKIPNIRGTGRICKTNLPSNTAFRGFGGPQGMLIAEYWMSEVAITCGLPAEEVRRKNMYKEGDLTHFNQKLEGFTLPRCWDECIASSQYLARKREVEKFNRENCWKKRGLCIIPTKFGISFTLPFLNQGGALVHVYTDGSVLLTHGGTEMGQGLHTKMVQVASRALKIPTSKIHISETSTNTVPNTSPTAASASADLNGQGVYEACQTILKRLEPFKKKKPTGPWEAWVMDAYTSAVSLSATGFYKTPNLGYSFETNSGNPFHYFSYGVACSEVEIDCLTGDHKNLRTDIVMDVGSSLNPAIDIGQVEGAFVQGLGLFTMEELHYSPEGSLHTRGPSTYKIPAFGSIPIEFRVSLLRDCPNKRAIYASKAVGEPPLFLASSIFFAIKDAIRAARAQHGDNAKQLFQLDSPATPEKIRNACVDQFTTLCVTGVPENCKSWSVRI

## Oc1ncnc2[nH]ncc12 [Allopurinol]
[1]; hyperuricemia model rats, compared with model group
  effect on serum uric acid content, in words: significantly decreased (p<0.01)
[1]; serum, SD male rats after modeling with oteracil potassium 2 g/kg daily, baseline before administration
  Uric acid value, before administration: 230.4 ± 19.1 µmol/L
[1]; serum, gavage, peptide samples 200 mg/kg, allopurinol 50 mg/kg, 10 days
  Uric acid value, treatment for 10 days: 89.5 ± 22.4^b μmol/L
[1]; serum, gavage, peptide samples 200 mg/kg, allopurinol 50 mg/kg, 20 days
  Uric acid value, treatment for 20 days: 94.5 ± 13.9^b μmol/L
[1]; serum, gavage, peptide samples 200 mg/kg, allopurinol 50 mg/kg, 30 days
  Uric acid value, treatment for 30 days: 92.8 ± 20.9^b μmol/L
[2]
  Creatinine: 41.8 ± 13.2^b μmol/L
[3]
  ADA: 12.28 ± 7.88^b U/ml
[4]
  XOD: 8.61 ± 2.46^b U/L

Reference: patent US10575537B2, “Saury Maillard peptide and its preparation method and application” (South China University of Technology, priority 2015, dated 2020)
